US20070293445A1, “Stable Elsamitrucin Salts Suitable for Pharmaceutical Formulations” (SPECTRUM PHARMACEUTICALS, INC., priority 2006, published 2007)
Where two headings read alike, the source gives them in different places.

Assays:
[1] = system: HCT 116 human colon carcinoma; assay: MTT cell growth inhibition, HCT 116; assay type: cell-based; conditions: 5-10 days incubation
Experimental: (§1) Elsamitrucin and Elsamitrucin tosylate were tested in vitro using: B16F10 (murine […]), HCT 116 (human colon), HT29 (human colon) and SK-MES-1 (human non-small cell lung carcinoma ). Cell growth inhibition was evaluated in 96-well micro-culture plates with a semi-automated MTT (3-(4,5-dimethylthiazol-2-yl)-2,5-diphenyltetrazolium bromide) assay.
(§2) SK-MES-1 human non-small cell lung carcinoma, B16F10 murine melanoma cells, HCT 116 and HT29 human colon carcinomas (collectively “test cell cultures”) were maintained in buffered RPMI 1640 supplemented with fetal calf serum, antibiotics and other appropriate growth factors such as glutamine. Test cells (1,500-2,000 cells/well) were seeded in a 96-well micro culture plate with a total volume of 100 μL/well. After overnight incubation in a humidified incubator at 37° C. with 5% CO2 and 95% air, elsamitrucin solutions were diluted to various concentrations with RPMI 1640, were added to each well in a 100 μL volume. The elsamitrucin base and the elsamitrucin tosylate solutions (elsamitrucin solutions) were prepared and stored in a −20° C. freezer. The solutions were thawed not more than 10 times for the entire experiment.
(§3) Cell culture plates seeded with test cells and various concentrations of elsamitrucin solutions were placed in a humidified incubator at 37° C., with CO2 and 95% air for 5-10 days. […]

[2] = system: SK-MES-1 human non-small cell lung carcinoma; assay: MTT cell growth inhibition, SK-MES-1; assay type: cell-based; conditions: 5-10 days incubation
Experimental: as §1, §2, §3

MCF7DX = MCF7DX subline; cited from earlier work
MDA-MB-231 = conditions: ER− MDA-MB-231; cited from earlier work
MCF7 = conditions: ER+ MCF7; cited from earlier work
[3] = system: HT29 human colon carcinoma; assay: MTT cell growth inhibition, HT29; assay type: cell-based; conditions: 5-10 days incubation
Experimental: as §1, §2, §3

[4] = system: B16F10 murine melanoma cells; assay: MTT cell growth inhibition, B16F10; assay type: cell-based; conditions: 5-10 days incubation
Experimental: as §1, §2, §3

[5] = system: clinical breast cancer specimens from untreated patients; conditions: cited from earlier work
[6] = system: patients with refractory/relapsed non-Hodgkin's lymphoma; conditions: cited from earlier work

Q: For “benzo(h)(1)benzopyrano(5,4,3-cde)(1)ebnzopyran-5,12-dione,10((2-O-(2-amino-2,6-dideoxy-3-O-methyl-alpha-D-galactopyranosyl)-6-deoxy-3-C-methyl-beta-D-galactopyranosyl)oxy)-6-hydroxy-1-methyl [Elsamitrucin]”, which IC50 [1] is on record?
A: 0.074 µM

Q: What about the IC50 [2] of the same substance?
A: 0.042 µM

Q: What about the “cross-resistance to doxorubicin (DX)” value (MCF7DX) of the same substance?
A: cross-resistant to DX

Q: What about the IC50 antiproliferative effect (MDA-MB-231) of the same substance?
A: 0.21 micrograms/ml

Q: And the IC50 antiproliferative effect (MCF7)?
A: 0.25 micrograms/ml

Q: What about the IC50 [3] of the same substance?
A: 0.095 µM

Q: What about the IC50 [4] of the same substance?
A: 0.024 µM

Q: What about the minimal inhibiting concentration ([5]; ER+ tumors) of the same substance?
A: 0.1 micrograms/ml

Q: What about the minimal inhibiting concentration ([5]; ER− tumors) of the same substance?
A: 3.5 micrograms/ml

Q: And the elsamitrucin-associated toxicity [6]?
A: relatively mild

Q: What about the myelosuppression [6] of the same substance?
A: did not include myelosuppression
